Experimental data published in patent US4975430A, “CNQX and its analogs as therapeutics for degenerative neural diseases” (The State of Oregon Acting by and Through The State Board …, priority 1989, dated 1990).

Tests used:
[1] = test system: NMDA receptor; conditions: cited from earlier work; for effect on responses produced by NMDA: literature reports (Honore et al., Blake et al., Fletcher, Dryer et al.)
[2] = test system: non-NMDA receptors; conditions: U.S. Pat. No. 4,812,458; cited from earlier work
[3] = test system: non-NMDA receptor for kainate; assay: kainate-mediated current in dissociated hippocampal neurons (control experiment); assay type: cell-based, rat; conditions: 10 uM CNQX, 20 uM kainate
[4] = target: glycine binding site (NMDA receptor); assay: 3-H-glycine binding to frontal cortex membranes; conditions: 4 nM 3-H-glycine, washed guinea pig frontal cortex membranes, 30 min on ice; read-out: IC50 for displacement of glycine
[5] = test system: NMDA receptor; assay: NMDA receptor-mediated currents, whole cell patch recordings in dissociated hippocampal neurons; assay type: cell-based, rat; conditions: for effect on NMDA receptor-mediated current: 30 uM NMDA

SMILES: N#Cc1cc2[nH]c(=O)c(=O)[nH]c2cc1[N+](=O)[O-] [CNQX, 6-cyano-7-nitroquinoxaline 2,3-dione]
- effect on responses produced by NMDA [1]: little or no effect
- effect on excitation of spinal cord neurons induced by stimulation of non-NMDA receptors [2]: depress the excitation
- effect on kainate-mediated current ([3]; 1 uM glycine): complete suppression
- effect of glycine on suppression of kainate-mediated current ([3]; glycine 1000 uM): no effect on this suppression
- IC50 [4]: 5.7 µM
- effect on NMDA receptor-mediated current ([5]; 10 uM CNQX, 1 uM glycine (FIG. 2A)): suppresses the response
- effect on NMDA receptor-mediated current ([5]; 10 uM CNQX, 100 uM glycine): substantially no effect
- effect on NMDA receptor-mediated current ([5]; 30 uM CNQX, 200 uM glycine, reversed by 500 uM NMDA (FIG. 2B)): relatively low suppression
- dependence of CNQX effects on membrane potential ([5]; currents recorded at +40 mv and -40 mV): not dependent on membrane potential
- glycine potentiation of NMDA receptor-mediated currents ([5]; varying glycine, 10 uM or 30 uM CNQX (FIG. 1)): complete potentiation is not achieved

SMILES: O=c1[nH]c2cc([N+](=O)[O-])c([N+](=O)[O-])cc2[nH]c1=O [DNQX, 6,7-dinitro-quinoxaline-2,3-dione]
- effect on NMDA concentration response curve ([1]; Birch et al. 1988): shift to the right
- effect on maximal response to NMDA ([1]; high antagonist concentrations, Birch et al. 1988): decrease in maximal response
- effect on responses produced by NMDA [1]: little or no effect
- effect on excitation of spinal cord neurons induced by stimulation of non-NMDA receptors [2]: depress the excitation
